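Here, GI50 denotes the concentration required for 50% inhibition of growth. TGI marks complete inhibition of growth.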
Assays:
Assay in all cases: NCI anticancer screen, dose series, 384-well format
BT-549 breast = system: BT-549 breast
SNB-19 CNS = system: SNB-19 CNS
SN12C renal = system: SN12C renal
T-47D breast = system: T-47D breast
LOX IMVI melanoma = system: LOX IMVI melanoma
NCI-H460 NSCLC = system: NCI-H460 NSCLC
SW-620 colon = system: SW-620 colon
SK-OV-3 ovarian = system: SK-OV-3 ovarian
HOP-62 NSCLC = system: HOP-62 NSCLC
ACHN renal = system: ACHN renal
SF-295 CNS = system: SF-295 CNS
SF-268 CNS = system: SF-268 CNS
HL-60(TB) leukemia = system: HL-60(TB) leukemia
MDA-MB-231 breast = system: MDA-MB-231 breast
UACC-62 melanoma = system: UACC-62 melanoma
NCI-H322M lung = system: NCI-H322M lung
U251 glioblastoma = system: U251 glioblastoma
UO-31 renal = system: UO-31 renal
MOLT-4 leukemia = system: MOLT-4 leukemia
MALME-3M melanoma = system: MALME-3M melanoma
MDA-MB-468 breast = system: MDA-MB-468 breast
A549 NSCLC = system: A549 NSCLC
HT29 colon = system: HT29 colon
MCF7 breast = system: MCF7 breast
SF-539 CNS = system: SF-539 CNS
SK-MEL-5 melanoma = system: SK-MEL-5 melanoma
UACC-257 melanoma = system: UACC-257 melanoma
OVCAR-8 ovarian = system: OVCAR-8 ovarian
HOP-92 NSCLC = system: HOP-92 NSCLC
KM12 colon = system: KM12 colon
HCC-2998 colon = system: HCC-2998 colon
K-562 leukemia = system: K-562 leukemia
SK-MEL-28 melanoma = system: SK-MEL-28 melanoma
NCI-H522 lung = system: NCI-H522 lung
RPMI-8226 leukemia = system: RPMI-8226 leukemia
SNB-75 CNS = system: SNB-75 CNS
IGROV1 ovarian = system: IGROV1 ovarian
CAKI-1 renal = system: CAKI-1 renal
M14 melanoma = system: M14 melanoma
NCI-H226 lung = system: NCI-H226 lung
OVCAR-4 ovarian = system: OVCAR-4 ovarian
NCI-H23 lung = system: NCI-H23 lung
DU-145 prostate = system: DU-145 prostate
SR leukemia = system: SR leukemia
CCRF-CEM leukemia = system: CCRF-CEM leukemia
MDA-MB-435 melanoma = system: MDA-MB-435 melanoma
HCT-15 colon = system: HCT-15 colon
NCI/ADR-RES ovarian = system: NCI/ADR-RES ovarian
OVCAR-3 ovarian = system: OVCAR-3 ovarian
A498 renal = system: A498 renal
HCT-116 colon = system: HCT-116 colon
786-0 renal = system: 786-0 renal
RXF 393 renal = system: RXF 393 renal
EKVX NSCLC = system: EKVX NSCLC
PC-3 prostate = system: PC-3 prostate
HS 578T breast = system: HS 578T breast
TK-10 renal = system: TK-10 renal
COLO 205 colon = system: COLO 205 colon

Q: What does the source list for CCN(Cc1cc(Nc2nc(C)cn3c(-c4cn[nH]c4)cnc23)sn1)C(C)(C)CO?
A: GI50 (BT-549 breast): 11.6 nM; TGI (BT-549 breast): 50.4 nM; GI50 (SNB-19 CNS): 53.4 nM; TGI (SNB-19 CNS): 1070 nM; GI50 (SN12C renal): 13.7 nM; TGI (SN12C renal): 61.3 nM; GI50 (T-47D breast): 1050 nM; TGI (T-47D breast): 11400 nM; GI50 (LOX IMVI melanoma): 27.6 nM; TGI (LOX IMVI melanoma): 134 nM; GI50 (NCI-H460 NSCLC): 26.1 nM; TGI (NCI-H460 NSCLC): 1130 nM; GI50 (SW-620 colon): 16.3 nM; TGI (SW-620 colon): 1360 nM; GI50 (SK-OV-3 ovarian): < 10 nM; TGI (SK-OV-3 ovarian): 41.1 nM; GI50 (HOP-62 NSCLC): 21 nM; TGI (HOP-62 NSCLC): 178 nM; GI50 (ACHN renal): 33.4 nM; TGI (ACHN renal): 10600 nM; GI50 (SF-295 CNS): 102 nM; TGI (SF-295 CNS): 319 nM; GI50 (SF-268 CNS): 14.8 nM; TGI (SF-268 CNS): 170 nM; GI50 (HL-60(TB) leukemia): < 10 nM; TGI (HL-60(TB) leukemia): < 10 nM; GI50 (MDA-MB-231 breast): 30 nM; TGI (MDA-MB-231 breast): 830 nM; GI50 (UACC-62 melanoma): 18.7 nM; TGI (UACC-62 melanoma): 1270 nM; GI50 (NCI-H322M lung): 69.2 nM; TGI (NCI-H322M lung): 1660 nM; GI50 (U251 glioblastoma): 42.5 nM; TGI (U251 glioblastoma): 1180 nM; GI50 (UO-31 renal): 64.1 nM; TGI (UO-31 renal): 1700 nM; GI50 (MOLT-4 leukemia): < 10 nM; TGI (MOLT-4 leukemia): < 10 nM; GI50 (MALME-3M melanoma): 26.6 nM; TGI (MALME-3M melanoma): 1130 nM; GI50 (MDA-MB-468 breast): < 10 nM; TGI (MDA-MB-468 breast): < 10 nM; GI50 (A549 NSCLC): 42.3 nM; TGI (A549 NSCLC): 1450 nM; GI50 (HT29 colon): 74.1 nM; TGI (HT29 colon): 490 nM; GI50 (MCF7 breast): 139 nM; TGI (MCF7 breast): 1580 nM; GI50 (SF-539 CNS): 12 nM; TGI (SF-539 CNS): 57.2 nM; GI50 (SK-MEL-5 melanoma): 118 nM; TGI (SK-MEL-5 melanoma): 537 nM; GI50 (UACC-257 melanoma): 1070 nM; TGI (UACC-257 melanoma): 2310 nM; GI50 (OVCAR-8 ovarian): 21.3 nM; TGI (OVCAR-8 ovarian): 188 nM; GI50 (HOP-92 NSCLC): 32.3 nM; TGI (HOP-92 NSCLC): 178 nM; GI50 (KM12 colon): 15.4 nM; TGI (KM12 colon): 1040 nM; GI50 (HCC-2998 colon): 99.9 nM; TGI (HCC-2998 colon): 362 nM; GI50 (K-562 leukemia): < 10 nM; TGI (K-562 leukemia): < 10 nM; GI50 (SK-MEL-28 melanoma): 169 nM; TGI (SK-MEL-28 melanoma): 9720 nM; GI50 (NCI-H522 lung): < 10 nM; TGI (NCI-H522 lung): 64.6 nM; GI50 (RPMI-8226 leukemia): 29.1 nM; TGI (RPMI-8226 leukemia): 123 nM; GI50 (SNB-75 CNS): 10 nM; TGI (SNB-75 CNS): 36.9 nM; GI50 (IGROV1 ovarian): 15.5 nM; TGI (IGROV1 ovarian): 372 nM; GI50 (CAKI-1 renal): < 10 nM; TGI (CAKI-1 renal): 42.1 nM; GI50 (M14 melanoma): < 10 nM; TGI (M14 melanoma): 142 nM; GI50 (NCI-H226 lung): < 10 nM; TGI (NCI-H226 lung): 152 nM; GI50 (OVCAR-4 ovarian): 114 nM; TGI (OVCAR-4 ovarian): 357 nM; GI50 (NCI-H23 lung): 40.9 nM; TGI (NCI-H23 lung): 274 nM; GI50 (DU-145 prostate): 21.3 nM; TGI (DU-145 prostate): 1270 nM; GI50 (SR leukemia): < 10 nM; TGI (SR leukemia): < 10 nM; GI50 (CCRF-CEM leukemia): < 10 nM; TGI (CCRF-CEM leukemia): < 10 nM; GI50 (MDA-MB-435 melanoma): 71.2 nM; TGI (MDA-MB-435 melanoma): 242 nM; GI50 (HCT-15 colon): 23.2 nM; TGI (HCT-15 colon): 1560 nM; GI50 (NCI/ADR-RES ovarian): 534 nM; TGI (NCI/ADR-RES ovarian): 4080 nM; GI50 (OVCAR-3 ovarian): 16.3 nM; TGI (OVCAR-3 ovarian): 204 nM; GI50 (A498 renal): 13.2 nM; TGI (A498 renal): 299 nM; GI50 (HCT-116 colon): < 10 nM; TGI (HCT-116 colon): 1400 nM; GI50 ([…]-0 renal): 45.7 nM; TGI (786-0 renal): 370 nM; GI50 (RXF 393 renal): < 10 nM; TGI (RXF 393 renal): 133 nM; GI50 (EKVX NSCLC): 32.1 nM; TGI (EKVX NSCLC): 1500 nM; GI50 (PC-3 prostate): 21 nM; TGI (PC-3 prostate): 2000 nM; GI50 (HS 578T breast): 15.6 nM; TGI (HS 578T breast): 39 nM; GI50 (TK-10 renal): 72.5 nM; TGI (TK-10 renal): 378 nM; GI50 (COLO 205 colon): < 10 nM; TGI (COLO 205 colon): 100 nM
